# From patent publication US20220233641A1, “Methods and Compositions for Treating Obesity and/or Skin Disorders” (THE TRUSTEES OF THE UNIVERSITY OF PENNSYLVANIA, priority 2019, published 2022)
# Entries after “also recorded” stand apart in the source; their conditions may differ.
# Experiments:
# HFD-fed TSLP-R KO mice = assay: Topical MC903 in HFD-fed TSLP-R KO mice; assay type: in vivo, mouse; settings: HFD-fed TSLP-R-deficient mice, topical MC903 2 nmol/ear, 12 weeks
# Procedure: (§1) TSLP-R KO mice were fed a normal chow (NC) or 40% high fat diet (HFD) for 12 weeks. The mice were topically treated with either vehicle (EtOH) or MC903 (2 nmol/ear) on both ears Monday, Wednesday, and Friday on odd weeks. Mice were weighed on the indicated time points and plotted as mean±SEM. Glucose tolerance test was performed on Week 12 by injection of glucose and subsequent measurements of blood glucose levels. AUC analysis is performed on the GTT curves. * indicates statistical significance of p<0.05 by Student t-test.
# as §1, with “TSLP-R knock out (KO) mice were” for “TSLP-R KO mice were”, “tolerance test (GTT) was performed” for “tolerance test was performed”
# HFD-fed mice = assay: Topical MC903 in HFD-fed WT C57BL/6 mice (weight gain, eWAT, GTT, HOMA-IR, liver histology); assay type: in vivo, mouse
# Procedure: WT C57BL/6 mice were fed a normal chow (NC) or 40% high fat diet (HFD) for 12 weeks. The mice were topically treated with either vehicle (EtOH) or MC903 (2 nmol/ear) on both ears Monday, Wednesday, and Friday on odd weeks. (FIG. 1A) Mice were weighed weekly and % change from baseline is plotted as mean±SEM. (FIG. 1B) The mice were euthanized on Week 12 and the epididymal fat pads were weighed. (FIG. 1C, FIG. 1D) Glucose tolerance test was performed on Week 12 by injection of glucose and subsequent measurements of blood glucose levels. HOMA-IR analysis was performed after an overnight fast at Week 12. *, **, and *** indicate statistical significance of p<0.05, p<0.01, and p<0.001, respectively by Student t-test or ANOVA.
# WT C57BL/6 mice were fed a normal chow (NC) or 40% high fat diet (HFD) for 12 weeks. The mice were topically treated with either vehicle (EtOH) or MC903 (2 nmol/ear) on both ears Monday, Wednesday, and Friday on odd weeks. Shown are representative histological images of the liver on Week 12.
# Wildtype C57BL/6 mice were fed a normal chow (NC) or 40% high fat diet (HFD) for 12 weeks. The mice were topically treated with either vehicle (EtOH) or MC903 (2 nmol/ear) on both ears Monday, Wednesday, and Friday on odd weeks. (A) Mice were weighed weekly and % change from baseline is plotted as mean±SEM. (B) The mice were euthanized on Week 12 and the epididymal fat pads were weighed. (C, D) Glucose tolerance test (GTT) was performed on Week 12 by injection of glucose and subsequent measurements of blood glucose levels. Homeostatic model assessment-insulin resistance (HOMA-IR) analysis was performed after an overnight fast at Week 12. *, **, and *** indicate statistical significance of p<0.05, p<0.01, and p<0.001, respectively by Student t-test or ANOVA.
# C57BL/6 mice were fed a normal chow (NC) or 40% high fat diet (HFD) for 12 weeks. The mice were topically treated with either vehicle (EtOH) or MC903 (2 nmol/ear) on both ears Monday, Wednesday, and Friday on odd weeks. Shown are representative histological images of the liver on Week 12.
# human individual = assay: Topical MC903 application to arm or leg of human individuals (remote effects on sebum, dry skin, scalp hair, dry eye); assay type: in vivo
# Procedure: MC903 was applied topically to the right arm of an individual daily. Sebum measurements were obtained by cleaning the forehead with ethanol wipe, resting for 15 minutes, and placing sebutape on the forehead for 2 minutes. Black dots on the blue and white background of the tape indicates the presence of sebum at each day post treatment.
# MC903 was applied topically to the right arm of an individual daily. Photographs of the right hand before and after 3 or 5 days post treatment is shown. The individual was treated for 14 days total with no need of hand cream at least 9 weeks even after treatment was discontinued. In certain embodiments, secretion of sebum lasts after cessation of treatment.
# MC903 was applied topically to the left arm daily of an individual for 14 days (1st treatment). Treatment was stopped for 4 weeks and restarted for an additional 2 weeks (2nd treatment) on the right arm daily. Photographs of the scalp before, 2 weeks after 1st treatment, 11 days after 2nd treatment, and 8 weeks after 2nd treatment are shown.[…].
# MC903 was applied topically to the left arm daily of an individual and the right leg another individual for 14 days (1st treatment). The presence of dry eye symptoms was subjectively evaluated in the two individuals before and after treatment. The response is plotted in a bar graph.
# [1] = HFD-fed mice, Week 12, vs vehicle
compound,measurement,setting,value
"C=C1/C(=C\C=C2/CCC[C@]3(C)[C@@H]([C@H](C)/C=C/[C@@H](O)C4CC4)CC[C@@H]23)C[C@@H](O)C[C@@H]1O [MC903, 26,27-cyclo-22-ene-1α,24S-dihydroxyvitamin D3]",weight gain and metabolic parameters,HFD-fed TSLP-R KO mice,does not prevent weight gain or improve metabolic parameters
same,weight gain,"HFD-fed mice; HFD-fed WT C57BL/6 mice, topical MC903 2 nmol/ear, 12 weeks, vs vehicle (EtOH)",significantly reduced weight gain; also recorded: significantly less weight gain; also recorded: prevention weight gain
same,epididymal white adipose tissue (eWAT) weight,HFD-fed mice; [1],significantly decreased
same,fat deposition in the liver (histology),HFD-fed mice; [1],markedly reduced; also recorded: appeared very similar to the tissue of mice fed with normal chow; also recorded: prevention of HFD-induced hepatosteatosis
same,metabolic parameters (GTT and HOMA-IR),HFD-fed mice; [1],improved metabolic parameters; also recorded: improvement in metabolic parameters
same,time with no need of hand cream after treatment was discontinued,human individual; human individual treated for 14 days total,at least 9 weeks
same,scalp hair growth,"human individual; human individual, 2 cycles of 2-week topical MC903 on the arm",substantial recovery of hair growth; also recorded: remotely promotes scalp hair growth
same,sebum on the forehead (sebutape),"human individual; one human individual, MC903 topically on the arm daily",increasing amounts of sebum on the forehead; also recorded: remotely increases sebum secretion
same,eczematous dry skin of a hand,"human individual; one human individual, MC903 topically on the right arm daily",marked improvement; also recorded: remotely cures dry skin of the hand
same,dry eye symptoms (subjective),"human individual; two human individuals, MC903 on arm or leg daily for 14 days",improvement in dry eye symptoms; also recorded: remotely improves dry eye symptoms
